Entries after “also recorded” stand apart in the source; their conditions may differ. Where a SMILES comes first, the peptide text is derived from it. [ ]: non-standard residue; d: D form. Nleu = CC(C)CNCC(=O)O; Nlys = NCCCCNCC(=O)O

Series [1] in a line: Lipid vesicle leakage assay. The settings on record: 10 mM TRIS, 107 mM NaCl, pH 7.4; for Vesicle leakage activity on EYPC vesicles: egg yolk phosphatidyl choline vesicles; for Vesicle leakage activity on EYPG vesicles: fluorescein-loaded anionic EYPG vesicles. The procedure:
(c) Vesicle leakage assay for a selection of compounds.
EYPG - EB11 1 EYPC - EB11
Figure S2: Vesicle leakage experiments using 5(6)-carboxyfluorescein induced by peptides. EYPG and EYPC
compound was added after 45 sec. After 240 seconds, 30 µL Triton X-100 1.2% was added for full release of […]

The subject of series [2] is E. coli W3110. Nature of the series: NPN outer membrane permeability assay. The class given is cell-based, Escherichia coli. The method, then: (§1) Figure 4 Interactions of peptide–peptoid hybrids with bacterial outer and inner membranes of E. coli. (a, b) NPN outer membrane permeability assay. E. coli W3110 bacteria were treated with increasing compound concentrations in the presence of 10 μM NPN. The fluorescence intensity (λex = 340 nm, λem = 415 nm) was measured within 5 min. Data represent mean ± SD, n = 3. (c, d) DiSC3(5) inner membrane depolarization assay. E. coli W3110 bacteria were treated with increasing compound concentrations in the presence of 2 μM DiSC3(5). The fluorescence intensity (λex = 610 nm, λem = 660 nm) was measured within 5 min after treatment, and the data represent mean ± SD, n = 3.
A single colony of P. aeruginosa PAO1 and E. coli W3110 was grown overnight while being shaken (150 rpm) in LB-broth (5 mL) at 37 °C. 100 μL of the overnight culture was regrown in 10 mL of LB broth with shaking (200 rpm) to the exponential phase (OD600 = 1, corresponding to 10^9 CFU/mL). Bacteria were washed three times with HEPES buffer (5 mM HEPES, 5 mM glucose, pH 7.4), but not diluted yet to their final concentration. 200 μL of peptide samples was added to the first well of 96-well plates (black wells, flat bottom, BRAND GmbH Wertheim, Germany), 100 μL of HEPES/glucose buffer with 10 μM N-phenyl-1-naphthylamine (NPN, purchased from Acros Organics) was added in all the wells, and the compounds were diluted serially by 1/2 (add a control with a final volume of 200 μL with 10 μM NPN in buffer only). Ca. 10 min before the measurement and the final dilution of the bacteria, the plates and the 10 μM NPN in HEPES/glucose buffer (for bacteria dilution) were incubated at 37 °C (prior to the dilution of the bacteria with buffer containing NPN 10 μM). Later, the bacteria were diluted to OD600 = 0.5 with the NPN in HEPES/glucose buffer. 100 μL of the bacterial suspension was added to each well. In this case, the final OD of bacteria was 0.25, the final concentration of the desired compound 64 μg/mL, and NPN 10 μM. The control wells are buffer containing NPN (10 μM, 200 μL) and bacterial suspension containing NPN in HEPES buffer. The plate was measured with a Tecan instrument Infinite M1000 within 5 min. The plate was enabled to shake for 5 s before measurement. The excitation wavelength used was 340 ± 5 nm, and emission wavelength was 415 ± 5 nm. The assay was repeated at least three times.

In series [3] the test system is E. coli W3110. Nature of the series: DiSC3(5) inner membrane depolarization assay. The settings on record: E. coli W3110, 2 μM DiSC3(5). The class given is cell-based, Escherichia coli. The method, then:
as §1
(§2) A single colony of P. aeruginosa PAO1 and E. coli W3110 was grown overnight with shaking (150 rpm) in LB broth (5 mL) at 37 °C. A 100 μL portion of the overnight culture was regrown in 10 mL of LB broth with shaking (200 rpm) to the exponential phase (OD600 = 1, corresponding to 10^9 CFU/mL). Bacteria were washed once with HEPES buffer (5 mM HEPES, 5 mM glucose, pH 7.4) and diluted to an OD600 = 0.5. Stock solution of 10 mM of 3,3′-dipropylthiadicarbocyanine iodide (DiSC3(5), purchased from Sigma) was prepared in DMSO. Stock solutions of 2 mg/mL of the compounds were prepared in sterilized milli-Q water and diluted to the beginning concentration of 128 μg/mL in 200 μL of HEPES buffer containing 4 μM of the fluorescent probe DiSC3(5). The diluted samples were added to the first well of 96-well plates (black wells, flat bottom, BRAND GmbH Wertheim, Germany) and diluted serially by 1/2. 100 μL of the bacterial suspension in HEPES buffer (without fluorophore) was added to each well. In this case, the final OD of bacteria was 0.25, the final concentration of peptide in the first column was 64 μg/mL, and DiSC3(5) was 2 μM. The control wells are buffer containing DiSC3(5) and bacterial suspension containing DiSC3(5) in HEPES buffer. The plate was measured with a Tecan instrument Infinite M1000 within 5 min. […] The assay was measured in triplicate and repeated at least two times.[65],[75]

For series [4], the system named is P. aeruginosa PAO1. Nature of the series: DiSC3(5) inner membrane depolarization assay. The class given is cell-based, Pseudomonas aeruginosa. The following applies: P. aeruginosa PAO1, 2 μM DiSC3(5). The method, then:
Figure 5 Interactions of peptide–peptoid hybrids with bacterial outer and inner membranes of P. aeruginosa. (a, b) NPN outer membrane permeability assay. P. aeruginosa PAO1 bacteria were treated with increasing compound concentrations in the presence of 10 μM NPN. The fluorescence intensity (λex = 340 nm, λem = 415 nm) was measured within 5 min. Data represent the mean ± SD, n = 3. (c, d) DiSC3(5) inner membrane depolarization assay. P. aeruginosa PAO1 cells were treated with increasing compound concentrations in the presence of 2 μM DiSC3(5). The fluorescence intensity (λex = 610 nm, λem = 660 nm) was measured within 5 min after treatment, and the data represent mean ± SD, n = 3.
as §2

Series [5] concerns E. coli W3110. Briefly: Time–kill assay. The class given is cell-based, Escherichia coli. An excerpt:
(§3) Figure 1 Killing profile of selected compounds on bacteria a) against E. coli W3110 measured in full MH at pH 7.4, b) against P. aeruginosa PAO1 in full MH at pH 7.4, c) against E. coli W3110 in diluted MH at pH 8.5, and d) against P. aeruginosa PAO1 in dilute MH at pH 8.5. The assay was repeated twice in triplicate, and the data represent the mean ± SD, n = 6.

Series [6] relates to P. aeruginosa PAO1. Briefly: Time–kill assay. Format: cell-based, Pseudomonas aeruginosa.
Description: as §3

The mark [7] stands for this setting: E. coli W3110, diluted MH at pH 8.5.
The mark [8] stands for this setting: P. aeruginosa PAO1, dilute MH at pH 8.5.

On to `CC(C)C[C@H](NC(=O)[C@H](CCCCN)NC(=O)CNCCCCN)C(=O)N[C@@H](CC(C)C)C(=O)N[C@@H](CCCCN)C(=O)N[C@@H](CC(C)C)C(=O)N[C@@H](CC(C)C)C(=O)N[C@@H](CCCCN)C(=O)N[C@@H](CC(C)C)C(=O)N[C@@H](CC(C)C)C(=O)N(CC(N)=O)CC(C)C` [EB1] (H-[Nlys]KLLKLLKLL[Nleu]-NH2; N-terminus assumed), for which, in series [1], the “Vesicle leakage activity on EYPC vesicles” value is listed as “very low levels of activity” and the “Vesicle leakage activity on EYPG vesicles” value was “very strong activities”.
Regarding `CC(C)C[C@H](NC(=O)[C@H](CC(C)C)NC(=O)[C@H](CC(C)C)NC(=O)[C@H](CCCCN)NC(=O)[C@H](CC(C)C)NC(=O)[C@H](CC(C)C)NC(=O)CN(CCCCN)C(=O)CN(CC(C)C)C(=O)CN(CC(C)C)C(=O)CN(CCCCN)C(=O)CNCCCCN)C(N)=O` [EB5, kkllkLLKLLL] (H-[Nlys][Nlys][Nleu][Nleu][Nlys]LLKLLL-NH2), the “Outer membrane permeabilization (NPN)” value in the series on E. coli W3110 [2] (not told) was “permeabilized the outer membrane”.
For `CC(C)C[C@H](NC(=O)[C@H](CC(C)C)NC(=O)[C@H](CC(C)C)NC(=O)[C@H](CCCCN)NC(=O)[C@H](CC(C)C)NC(=O)[C@H](CC(C)C)NC(=O)CN(CCCCN)C(=O)[C@H](CC(C)C)NC(=O)[C@H](CC(C)C)NC(=O)CN(CCCCN)C(=O)CNCCCCN)C(N)=O` [EB6, kkLLkLLKLLL] (H-[Nlys][Nlys]LL[Nlys]LLKLLL-NH2), the “Vesicle leakage activity on EYPC vesicles” value in series [1] is “very low levels of activity”. For the same compound, the “Vesicle leakage activity on EYPG vesicles” value in series [1] is “very strong activities”. Also, the “Inner membrane depolarization (DiSC3(5))” value in the series on E. coli W3110 [3] and in the series with P. aeruginosa PAO1 [4] was “strongly depolarized the inner membrane” each time. In the series with E. coli W3110 [2] (not told), the “Outer membrane permeabilization (NPN)” value was “permeabilized the outer membrane”. The “Time–kill, killing profile” value was “completely killed” with E. coli W3110 [5] (E. coli W3110, full MH at pH 7.4) and “completely killed” in the series with P. aeruginosa PAO1 [6] (P. aeruginosa PAO1, full MH at pH 7.4).
As to `CC(C)C[C@H](NC(=O)CN(CC(C)C)C(=O)[C@H](CC(C)C)NC(=O)CN(CCCCN)C(=O)[C@H](CC(C)C)NC(=O)CN(CC(C)C)C(=O)[C@H](CCCCN)NC(=O)CN(CC(C)C)C(=O)[C@H](CC(C)C)NC(=O)CN(CCCCN)C(=O)[C@@H](N)CCCCN)C(N)=O` [EB9, KkLlKlLkLlL] (H-K[Nlys]L[Nleu]K[Nleu]L[Nlys]L[Nleu]L-NH2), the “Vesicle leakage activity on EYPC vesicles” value in series [1] is recorded as “no activity”. Further, in series [1], the “Vesicle leakage activity on EYPG vesicles” value is “weak or no vesicle leakage activity; also recorded: inactive”. Moreover, the “Inner membrane depolarization (DiSC3(5))” value with E. coli W3110 [3] and in the series with P. aeruginosa PAO1 [4] was “partly depolarized the inner membrane” in each case. Also, the “Outer membrane permeabilization (NPN)” value in the series with E. coli W3110 [2] (not told) was “significant outer membrane permeabilization”. The “Time–kill, killing profile” value with E. coli W3110 [5] (setting [7]) is “Bacteria could still be detected after 6 h”; in the series with P. aeruginosa PAO1 [6] (setting [8]) it was “killed P. aeruginosa, however at a rather slow rate”.
As for `CC(C)CN(CC(N)=O)C(=O)CN(CC(C)C)C(=O)CN(CC(C)C)C(=O)CN(CCCCN)C(=O)CN(CC(C)C)C(=O)CN(CC(C)C)C(=O)CN(CCCCN)C(=O)CN(CC(C)C)C(=O)CN(CC(C)C)C(=O)CN(CCCCN)C(=O)CNCCCCN` [EB11, kkllkllklll] (H-[Nlys][Nlys][Nleu][Nleu][Nlys][Nleu][Nleu][Nlys][Nleu][Nleu][Nleu]-NH2), the “Vesicle leakage activity on EYPC vesicles” value in series [1] is recorded as “no activity”. Further, the “Vesicle leakage activity on EYPG vesicles” value in series [1] is given as “weak or no vesicle leakage activity”. Moreover, the “Inner membrane depolarization (DiSC3(5))” value in the series with E. coli W3110 [3] and in the series on P. aeruginosa PAO1 [4] was “partly depolarized the inner membrane” in each case. Also, the “Outer membrane permeabilization (NPN)” value with E. coli W3110 [2] (E. coli W3110, 10 μM NPN) is listed as “significant outer membrane permeabilization”. Also, the “Time–kill, killing profile” value in the series with E. coli W3110 [5] (setting [7]) is listed as “Bacteria could still be detected after 6 h”; with P. aeruginosa PAO1 [6] (setting [8]) it was “killed P. aeruginosa, however at a rather slow rate”.

The record behind these values is publication PMC10714400, “Antimicrobial Peptide–Peptoid Hybrids with and without Membrane Disruption” (ACS Infectious Diseases, 2023).
